# Laboratory results reported in US20110077215A1, “DNA Methylation As A Target For Diagnosis And Treatment Of Chronic Lymphocytic Leukema (CLL)” (THE UNIVERSITY OF UTAH RESEARCH FOUNDATION, priority 2005, published 2011).
# Entries after “also recorded” stand apart in the source; their conditions may differ. Marks after values point to notes of the source that are not given here.
# Assays:
# [1] = test system: miRNA expression in patients with CLL; test: miRNA expression profile (Taqman real-time PCR) before and after DNA methylation inhibitor; format: in vivo, human; settings: for Changes in bcl-2, p53, mir-15, mir-16: after treatment; for miR-34a and miR-195 expression: patients with decreased lymphocytosis following drug treatment; for Expression of mir-17-3p, mir-21, mir-29a/b/c, mir-30e, mir-104, mir-126, mir-128a, mir-130a, mir-141, mir-142-3p, mir-148a, mir-151, mir-199a, mir-199a*, mir-301: real-time PCR, Early Access Human Panel; for microRNA expression after treatment: six patients on 5-azacytidine, one patient on 2-chloro-2-deoxyadenosine
# Experimental: The DNA MI was measured in each patient before and after treatment with low dose cladribine.
# (§1) Patients with CLL not in immediate need for cytoreductive therapy are enrolled on a dose-escalation study of low-dose 5-azacytidine (Vidaza, provided by the Pharmion Corporation.) Patients must have a KPS greater than 70%, white blood cell count greater than 20,000/μL hemoglobin >8 g/dL, platelet count >50,000/μL, normal liver, and renal functions. The study was carried out in 2 stages using a modification of the design proposed by Storer. {Storer, 1989 #16} In the first stage, patients were enrolled as single patient cohorts until either at least a 20% DNA MI inhibition or a greater than grade II toxicity. This allowed us to get closer to the target biologically effective dose before enrolling three patient cohorts. The global DNA MI and the miRNA expression profile of 6 patients before and after 5-azacytidine in the patients in the first stage of the study protocol was determined. Patients received 10-70 mg/m^2/day on days 1-3 and days 8-10.
# Total RNA is extracted with Trizol, as previously described. {O'Donnell, 2005 #182} MiRNA expression was determined using the Applied Biosystems Taqman MicroRNA Assays Human Panel Early Access Kit. 10 ηg of RNA is used for each sample. cDNA is made using a looped RT primer provided by the kit. A 1 to 5 dilution of the cDNA is used for each sample and used for quantitative PCR on the ABI 7900HT Fast Real-Time PCR System. MiRNA-specific forward and reverse primers were provided in plates A and B. MiR-16 and let-7a served as positive controls while let-2 served as a negative control for human samples. Each miRNA were performed in quadriplicates. The miRNA expression was determined for CD5^+B-lymphocytes obtained from pediatric tonsils and from B-lymphocytes of 5 healthy controls.
# Two different DNA methylation inhibitors were studied with respect to re-expression of microRNA: a DNA methyltransferase enzyme inhibitor, 5-azacytidine, and a methyl substrate inhibitor, 2-chloro-2-deoxyadenosine. […] Mir-17-3p and mir-21 have anti-apoptotic properties.
# [2] = test system: global DNA methylation; test: Global DNA MI (HPLC) before and after low-dose 5-azacytidine; format: in vivo, human
# [3] = test system: patients with CLL; test: Dose-escalation study of low-dose 5-azacytidine: toxicity; format: in vivo, human
# Experimental: as §1
# [4] = test system: global DNA methylation; test: Global methylation analysis after continuous infusion Decitabine; format: in vivo, human; settings: patients treated with Decitabine
# Experimental: All patients were treated with continuous infusion Decitabine given intravenously in an inpatient setting. […] The method for assessing DNA methylation was consistent and reproducible (Samlowski et al. Manuscript submitted to JCO).
# [5] = test system: global DNA methylation; test: Global DNA methylation (HPLC of digested genomic DNA) before and after low-dose cladribine; format: in vivo, human
# [6] = test system: patients with chronic lymphocytic leukemia; test: Phase I dose-escalation of low-dose subcutaneous cladribine: clinical response and toxicity; format: in vivo, human
# Experimental: Additional inclusion criteria included: KPS>70%, absolute neutrophil count >1500/μl, platelet count >100,000/μl, creatinine <2.0 mg/dl, normal liver function tests, no evidence of active infections on chest x-ray or urinalysis, and no concurrent chemotherapy or radiation therapy within 4 weeks of registration. Each patient signed an informed consent form approved by the University of Utah institutional review board, Clinical Cancer Investigation Committee, and Salt Lake City Veterans Administration Medical Center (SLC VAMC) Research and Development office.
# The study accrued three patients from the VAMC and two patients from the Huntsman Cancer Institute at the University of Utah from January to May 2005. The patients were given three consecutive subcutaneous injections of cladribine (Leustatin) once every 28-32 days, starting at a dose of 0.05 mg per kg per day. The primary endpoint of the study was to find the dose of cladribine which caused a 20% decrease in global DNA methylation. Each patient served as their own control, and was dose-escalated every 28-32 days by 0.01 mg per kg per day if the primary endpoint was not met. Patients were given prophylactic doses of trimethoprim/sulfamethoxazole for the prevention of pneumocystis carinii. Patients allergic to trimethoprim/sulfamethoxazole were prescribed prophylactic doses of dapsone. No clinical endpoints were written into the study initially. […] A clinical response was defined by the NCI-sponsored working group for CLL. (See Cheson et al., BLOOD (1996) 87:4990-97). A patient was considered to have completed the study when the total white blood count was less than 10,000 cells/μl after two consecutive weekly blood counts. The entire study was conducted at the University of Utah General Clinical Research Center (GCRC). Leustatin was provided to the patients by Tibotec Therapeutics, a division of Johnson and Johnson.
# Five patients with CLL were given subcutaneous injections of cladribine (Leustatin, provided by Tibotec Therapeutics) on three consecutive days at 28-32 day intervals, starting at a dose of 0.05 mg/kg/day, approximately ⅓ of the recommended therapeutic dose. {Juliusson, 1993 #10; Juliusson, 1996 #11} Five patients with a confirmed diagnosis of CLL (Table 3) participated in an Institutional Review Board-approved protocol between January and May 2005 after informed consent was obtained. […] Inclusion criteria included: KPS>70%, absolute neutrophil count >1500/μL, platelet count >100,000/μL, creatinine <2.0 mg/dL, normal liver function tests, no evidence of active infections, and no concurrent chemotherapy or radiation therapy within 4 weeks of registration.
# [7] = test system: histone 3 (H3) methylation in CLL cells; test: Histone methylation immunofluorescence of CLL cells after low-dose cladribine; format: in vivo, human
# Experimental: The DNA and the mononuclear cells from the buffy coat were stored from the majority of patient samples. DNA was used for global DNA methylation studies and the mononuclear cells from the buffy coat were used to measure changes in H3 methylation by immunofluorescence before and after treatment.
# 3×10^4 CLL cells were mounted onto a slide by cytospin at 800 rpm for 3 minutes. They were then fixed in 95% ethanol/5% acetic acid for 10 minutes, followed by incubation in 0.25 M sodium butyrate for 24 hours at room temperature. The slides were stained by the Ventana automated immunostainer at 40° C. The slides were first stained with the primary antibody (1:50) for 32 minutes, followed by staining with the secondary antibody (sheep or rabbit IgG-FITC) (1:200) for 32 minutes. Slides were counterstained with DAPI (1:100) for 1 minute and hematoxylin (Ventana Medical Systems) for 4 minutes. Fluorescent detection was performed with the IView DAB detection kit (Ventana Medical Systems). Intensity of fluorescence was quantitated by a wide field fluorescent microscope and quantified by the Openlab modular imaging software. Signal to noise was optimized by the software.
# A histone methylation assay that uses immunofluorescence to assess for histone methylation patterns after treatment with low-doses of cladribine was developed. […] These states are associated with transcription silencing. (See Jaskelioff et al., Nat. Cell. Biol. (2003) 5:395-99). In FIG. 4, an average of 100 cells was quantitated in the fluorescence intensity at each time point. The asterisk corresponds to days of treatment with cladribine. The error bars at each time point refer to the range of antibody staining in all cells. […] Multiparametric flow cytometry may be utilized to analyze further which subset of CLL cells respond to low doses of drugs.
# [8] = test system: HT-29 cells; test: DNA microarray analysis of gene re-expression after Cladribine; format: cell-based; settings: HT-29 colon cancer cell line
# Experimental: Lymphocytes are inclubated with 0-3 μM Cladribine.
# Total RNA is isolated with RNeasy mini kits (Qiagen) from samples treated with Cladribine or vehicle. Approximately 1 μg may be amplified using Message Amp kits (Ambion). In replicate experiments, DNA from the vehicle or treated samples may be variably labeled with Cy-3 and Cy-5 dye and two microarray experiments may be performed for each dye-orientation. The utilized microarray slides consist of 9600 genes from the Research Genetics 40k sequence-verified human clone set. Each sample is deposited in duplicate, with a Lucidea (Amersham) robotic spotter. After hybridization, the microarray slides are scanned with an Axon scanner, and data quantified using Imagene and GeneSight software. The local background is subtracted. Data points with no signal, high background, or spot asymmetry are eliminated. Genes with low expression and low signal intensity are adjusted to a minimal raw value of 5 to avoid unwarranted mathematical distortions due division by decimals <<1. After calculating the ratio of the Cy5/Cy3 fluorescence signal intensity for each gene, data is normalized relative to the mean intensity from all genes. […] Data is analyzed with Spotfire software for statistical and hierarchical cluster analysis using an unweighted pair-group method with arithmetic mean with a Euclidean distance metric.
# [9] = low-dose cladribine s.c., 5 CLL patients
# [10] = low-dose cladribine, 5 patients
# [11] = CLL cells after low dose cladribine
structure (smiles),measurement,setting,value
Nc1ncn([C@@H]2O[C@H](CO)[C@@H](O)[C@H]2O)c(=O)n1 [5-azacytidine],"Changes in bcl-2, p53, mir-15, mir-16",[1],No changes
same,miR-34a and miR-195 expression,[1],upregulated
same,"Expression of mir-17-3p, mir-21, mir-29a/b/c, mir-30e, mir-104, mir-126, mir-128a, mir-130a, mir-141, mir-142-3p, mir-148a, mir-151, mir-199a, mir-199a*, mir-301",[1],consistent microRNA upregulation
same,microRNA expression after treatment,[1],Increased microRNA expression
same,Global decrease of DNA methylation after treatment,"[2]; 6 out of 7 patients, pooled with the 2-chloro-2-deoxyadenosine patient",8%
same,Decrease in global DNA MI,"[2]; four out of the 6 patients, low-dose 5-azacytidine",~10%
same,Change in global DNA MI,"[2]; patients 2 and 4, low-dose 5-azacytidine",No change
same,Toxicity,"[3]; 5th patient, 60 mg/m^2/day",grade II thrombocytopenia and anemia
same,Toxicity,"[3]; the other patients, 10-70 mg/m^2/day",No other toxicities were observed
"Nc1ncn([C@H]2C[C@H](O)[C@@H](CO)O2)c(=O)n1 [Decitabine, 5-aza-2-deoxycytidine]",Decrease in global DNA methylation level achievable,[4],≥ 20%
"Nc1nc(Cl)nc2c1ncn2[C@H]1C[C@H](O)[C@@H](CO)O1 [cladribine, 2-chlorodeoxyadenosine]",Global decrease of DNA methylation after treatment,"[5]; 6 out of 7 patients, pooled with the six 5-azacytidine patients",8%
same,Effect on global DNA methylation,[5]; low-dose cladribine,modest response; also recorded: not an effective DNA methylation inhibitor; also recorded: minimal inhibition in global DNA methylation
same,"Changes in bcl-2, p53, mir-15, mir-16",[1],No changes
same,miR-34a and miR-195 expression,[1],upregulated
same,"Expression of mir-17-3p, mir-21, mir-29a/b/c, mir-30e, mir-104, mir-126, mir-128a, mir-130a, mir-141, mir-142-3p, mir-148a, mir-151, mir-199a, mir-199a*, mir-301",[1],consistent microRNA upregulation
same,microRNA expression after treatment,[1],Increased microRNA expression
same,Hemoglobin change over the course of the study,[6]; Patient 1,did not exhibit a decrease in hemoglobin
same,Toxicities overall,[6]; low-dose cladribine 0.05-0.09 mg per kg per day,without toxicities
same,Clinical response (NCI-sponsored working group),"[6]; low-dose cladribine 0.05-0.09 mg per kg per day, 3 days every 28 days",induce a clinical response in some patients; also recorded: partial response; also recorded: Three out of the five
same,CR (number of patients),[6]; [9],0
same,PD (number of patients),[6]; [9],1
same,PR duration,[6]; [9],5 months
same,Hematologic toxicities Grade III/IV (number of patients),[6]; [10],Grade III/IV (0)
same,Non-hematologic toxicities Grade I/II (number of patients),[6]; [10],Grade I/II (2)*
same,Non-hematologic toxicities Grade III/IV (number of patients),[6]; [10],Grade III/IV (0)
same,Non-hematologic toxicities observed (adverse events),"[6]; low-dose cladribine, events in patient 4","Two grade II non-hematologic toxicities; also recorded: grade II lymphadenitis; also recorded: second grade II infection, a community-acquired pneumonia"
same,Decrease in lymphocyte count by 50% (time),"[6]; mean of the 5 patients on trial, range 8-67 days",48 days (8-67 days)**
same,Hemoglobin,"[6]; mean of the 5 patients on trial, range 12.1-16 g/dL",14.6 g/dL (12.1-16 g/dL)**
same,Platelet count,"[6]; mean of the 5 patients on trial, range 133-438k/μL",224k/μL (133-438k/μL)**
same,Reduction in circulating leukemia cells,"[6]; patient 1, dose escalation",did not demonstrate a reduction in circulating leukemia cells until the third dose escalation of 0.07 mg per kg per day
same,Outcome of patient 3 (previously treated),"[6]; patient 3, higher baseline global DNA methylation",progressive disease; also recorded: progression with a gradually increasing white blood count
same,White blood cell count change,"[6]; patient 5, first dose 0.05 mg per kg per day",dramatic reduction in white blood cell count
same,Reduction in white blood cell count,"[6]; patients 1, 2, 4 and 5 after low dose cladribine",≥ 50%
same,H3 dimethylated lysine 9 immunofluorescence,[7]; [11],Little change
same,H3 monomethylated lysine 4 immunofluorescence,[7]; [11],decreased to levels akin to signal intensity obtained from total histone 3; also recorded: decrease transiently
same,H3 monomethylated lysine 9 immunofluorescence,[7]; [11],increase and rise
same,H3 phospho-serine 10 immunofluorescence,[7]; [11],decrease and rise
same,H3 trimethylated lysine 9 immunofluorescence,[7]; [11],increase in trimethylated lysine 9 approximately 1 week later and increase and rise
same,Total histone 3 immunofluorescence,"[7]; patient 4, 0.05 mg per kg per day cladribine",minimal changes
same,Re-expression of silenced genes (DNA microarray),[8],re-expression of silenced genes in HT-29 cells
